Legend:
Experiment in all cases: relative viability (nuclei count vs DMSO), 5 days (fraction); higher = more cells survive
[1] = tested on: NCI-H2405
Procedure, shortened: (§1)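 Dosing by pin tool came one day after lung cancer cell lines were seeded in 1536-well plates, using either one drug or a fixed anchor-drug dose plus five library-drug doses (not always all listed) in √10 steps. After 5 days, nuclei were counted on 4× images. Relative viability is treated-well nuclei count divided by vehicle-well nuclei count, and values are medians of duplicate plates.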

[2] = tested on: NCI-H1355
Procedure, shortened: as §1

[3] = tested on: NCI-H441
Procedure, shortened: as §1

[4] = tested on: NCI-H23
Procedure, shortened: as §1

[5] = tested on: SK-MES-1
Procedure, shortened: as §1

[6] = tested on: NCI-H2023
Procedure, shortened: as §1

[7] = tested on: NCI-H727
Procedure, shortened: as §1

[8] = tested on: NCI-H2009
Procedure, shortened: as §1

[9] = tested on: UMC-11
Procedure, shortened: as §1

[10] = tested on: NCI-H322M
Procedure, shortened: as §1

[11] = tested on: LCLC-97TM1
Procedure, shortened: as §1

[12] = tested on: NCI-H1755
Procedure, shortened: as §1

[13] = tested on: NCI-H2085
Procedure, shortened: as §1

[14] = tested on: ChaGo-K-1
Procedure, shortened: as §1

[15] = tested on: LOU-NH91
Procedure, shortened: as §1

[16] = tested on: NCI-H2170
Procedure, shortened: as §1

[17] = tested on: NCI-H650
Procedure, shortened: as §1

[18] = tested on: RERF-LC-KJ
Procedure, shortened: as §1

[19] = tested on: NCI-H1437
Procedure, shortened: as §1

[20] = tested on: HCC-78
Procedure, shortened: as §1

[21] = tested on: ABC-1
Procedure, shortened: as §1

[22] = tested on: HOP-62
Procedure, shortened: as §1

Q: For `Cc1cnc(-c2cnc(NCCNc3ccc(C#N)cn3)nc2-c2ccc(Cl)cc2Cl)[nH]1` + O=C(CCCCCCC(=O)Nc1ccccc1)NO [Vorinostat] (partner 1 µM), which relative viability ([1]; first compound 0.08 µM) is on record?
A: Its relative viability is 1.02.

Q: What about the relative viability ([1]; first compound 0.253 µM) of the same molecule?
A: Its relative viability is 0.985.

Q: What about the relative viability ([1]; first compound 0.8 µM) of the same molecule?
A: Its relative viability is 0.909.

Q: What about the relative viability ([1]; first compound 2.53 µM) of the same molecule?
A: Its relative viability is 0.661.

Q: What about the relative viability ([2]; first compound 0.08 µM) of the same molecule?
A: The relative viability was 0.632.

Q: What about the relative viability ([2]; first compound 0.253 µM) of the same molecule?
A: Its relative viability is 0.544.

Q: What about the relative viability ([2]; first compound 0.8 µM) of the same molecule?
A: Its relative viability is 0.633.

Q: And the relative viability ([2]; first compound 2.53 µM)?
A: The relative viability was 0.651.

Q: What about the relative viability ([3]; first compound 0.08 µM) of the same molecule?
A: Its relative viability is 0.823.

Q: And the relative viability ([3]; first compound 0.8 µM)?
A: The relative viability was 0.737.

Q: What about the relative viability ([3]; first compound 2.53 µM) of the same molecule?
A: The relative viability was 0.738.

Q: And the relative viability ([4]; first compound 0.08 µM)?
A: Its relative viability is 0.568.

Q: What about the relative viability ([4]; first compound 0.253 µM) of the same molecule?
A: The relative viability was 0.475.

Q: What about the relative viability ([4]; first compound 0.8 µM) of the same molecule?
A: The relative viability was 0.575.

Q: What about the relative viability ([4]; first compound 2.53 µM) of the same molecule?
A: The relative viability was 0.529.

Q: And the relative viability ([5]; first compound 0.08 µM)?
A: The relative viability was 1.07.

Q: What about the relative viability ([5]; first compound 0.253 µM) of the same molecule?
A: The relative viability was 0.977.

Q: What about the relative viability ([5]; first compound 0.8 µM) of the same molecule?
A: The relative viability was 1.19.

Q: What about the relative viability ([5]; first compound 2.53 µM) of the same molecule?
A: Its relative viability is 1.24.

Q: And the relative viability ([6]; first compound 0.08 µM)?
A: Its relative viability is 0.897.

Q: What about the relative viability ([6]; first compound 0.253 µM) of the same molecule?
A: Its relative viability is 0.473.

Q: And the relative viability ([6]; first compound 0.8 µM)?
A: Its relative viability is 0.465.

Q: And the relative viability ([6]; first compound 2.53 µM)?
A: Its relative viability is 0.731.

Q: What about the relative viability ([7]; first compound 0.08 µM) of the same molecule?
A: The relative viability was 1.18.

Q: What about the relative viability ([7]; first compound 0.253 µM) of the same molecule?
A: The relative viability was 0.787.

Q: What about the relative viability ([7]; first compound 0.8 µM) of the same molecule?
A: The relative viability was 1.02.

Q: And the relative viability ([7]; first compound 2.53 µM)?
A: Its relative viability is 1.23.

Q: What about the relative viability ([8]; first compound 0.08 µM) of the same molecule?
A: Its relative viability is 0.738.

Q: What about the relative viability ([8]; first compound 0.253 µM) of the same molecule?
A: Its relative viability is 0.676.

Q: What about the relative viability ([8]; first compound 0.8 µM) of the same molecule?
A: The relative viability was 0.659.

Q: And the relative viability ([8]; first compound 2.53 µM)?
A: The relative viability was 0.725.

Q: What about the relative viability ([9]; first compound 0.08 µM) of the same molecule?
A: The relative viability was 0.403.

Q: What about the relative viability ([9]; first compound 0.253 µM) of the same molecule?
A: The relative viability was 0.387.

Q: And the relative viability ([9]; first compound 0.8 µM)?
A: Its relative viability is 0.411.

Q: What about the relative viability ([9]; first compound 2.53 µM) of the same molecule?
A: The relative viability was 0.511.

Q: And the relative viability ([10]; first compound 0.08 µM)?
A: The relative viability was 0.843.

Q: What about the relative viability ([10]; first compound 0.253 µM) of the same molecule?
A: Its relative viability is 0.878.

Q: What about the relative viability ([10]; first compound 0.8 µM) of the same molecule?
A: Its relative viability is 0.874.

Q: And the relative viability ([10]; first compound 2.53 µM)?
A: The relative viability was 1.53.

Q: And the relative viability ([11]; first compound 0.08 µM)?
A: The relative viability was 0.712.

Q: What about the relative viability ([11]; first compound 0.253 µM) of the same molecule?
A: The relative viability was 0.462.

Q: And the relative viability ([11]; first compound 0.8 µM)?
A: Its relative viability is 0.515.

Q: And the relative viability ([11]; first compound 2.53 µM)?
A: Its relative viability is 0.515.

Q: And the relative viability ([12]; first compound 0.08 µM)?
A: Its relative viability is 0.826.

Q: And the relative viability ([12]; first compound 0.253 µM)?
A: The relative viability was 0.684.

Q: And the relative viability ([12]; first compound 0.8 µM)?
A: Its relative viability is 0.745.

Q: What about the relative viability ([12]; first compound 2.53 µM) of the same molecule?
A: Its relative viability is 0.823.

Q: And the relative viability ([13]; first compound 0.08 µM)?
A: Its relative viability is 0.886.

Q: What about the relative viability ([13]; first compound 0.253 µM) of the same molecule?
A: The relative viability was 0.769.

Q: What about the relative viability ([13]; first compound 0.8 µM) of the same molecule?
A: Its relative viability is 0.824.

Q: What about the relative viability ([13]; first compound 2.53 µM) of the same molecule?
A: The relative viability was 0.997.

Q: What about the relative viability ([14]; first compound 0.08 µM) of the same molecule?
A: The relative viability was 0.742.

Q: And the relative viability ([14]; first compound 0.253 µM)?
A: The relative viability was 0.649.

Q: What about the relative viability ([14]; first compound 0.8 µM) of the same molecule?
A: Its relative viability is 0.604.

Q: What about the relative viability ([14]; first compound 2.53 µM) of the same molecule?
A: Its relative viability is 0.664.

Q: What about the relative viability ([15]; first compound 0.08 µM) of the same molecule?
A: Its relative viability is 0.972.

Q: And the relative viability ([15]; first compound 0.253 µM)?
A: The relative viability was 0.878.

Q: What about the relative viability ([15]; first compound 0.8 µM) of the same molecule?
A: Its relative viability is 0.942.

Q: What about the relative viability ([15]; first compound 2.53 µM) of the same molecule?
A: The relative viability was 0.978.

Q: And the relative viability ([16]; first compound 0.08 µM)?
A: The relative viability was 0.837.

Q: What about the relative viability ([16]; first compound 0.8 µM) of the same molecule?
A: The relative viability was 0.734.

Q: And the relative viability ([16]; first compound 2.53 µM)?
A: The relative viability was 0.714.

Q: What about the relative viability ([17]; first compound 0.08 µM) of the same molecule?
A: Its relative viability is 0.544.

Q: What about the relative viability ([17]; first compound 0.253 µM) of the same molecule?
A: The relative viability was 0.423.

Q: What about the relative viability ([17]; first compound 0.8 µM) of the same molecule?
A: Its relative viability is 0.4.

Q: What about the relative viability ([17]; first compound 2.53 µM) of the same molecule?
A: Its relative viability is 0.443.

Q: What about the relative viability ([18]; first compound 0.08 µM) of the same molecule?
A: Its relative viability is 0.815.

Q: What about the relative viability ([18]; first compound 0.253 µM) of the same molecule?
A: Its relative viability is 0.565.

Q: What about the relative viability ([18]; first compound 0.8 µM) of the same molecule?
A: The relative viability was 0.58.

Q: What about the relative viability ([18]; first compound 2.53 µM) of the same molecule?
A: Its relative viability is 0.677.

Q: And the relative viability ([19]; first compound 0.08 µM)?
A: Its relative viability is 0.829.

Q: And the relative viability ([19]; first compound 0.253 µM)?
A: The relative viability was 0.774.

Q: What about the relative viability ([19]; first compound 0.8 µM) of the same molecule?
A: The relative viability was 0.828.

Q: And the relative viability ([19]; first compound 2.53 µM)?
A: The relative viability was 0.853.

Q: What about the relative viability ([20]; first compound 0.08 µM) of the same molecule?
A: The relative viability was 0.553.

Q: What about the relative viability ([20]; first compound 0.253 µM) of the same molecule?
A: The relative viability was 0.438.

Q: And the relative viability ([20]; first compound 0.8 µM)?
A: The relative viability was 0.39.

Q: What about the relative viability ([20]; first compound 2.53 µM) of the same molecule?
A: Its relative viability is 0.427.

Q: What about the relative viability ([21]; first compound 0.08 µM) of the same molecule?
A: Its relative viability is 1.24.

Q: And the relative viability ([21]; first compound 0.253 µM)?
A: The relative viability was 0.871.

Q: What about the relative viability ([21]; first compound 0.8 µM) of the same molecule?
A: The relative viability was 1.06.

Q: What about the relative viability ([21]; first compound 2.53 µM) of the same molecule?
A: Its relative viability is 1.15.

Q: What about the relative viability ([22]; first compound 0.08 µM) of the same molecule?
A: Its relative viability is 0.733.

Q: And the relative viability ([22]; first compound 0.8 µM)?
A: The relative viability was 0.545.

Q: What about the relative viability ([22]; first compound 2.53 µM) of the same molecule?
A: Its relative viability is 0.594.

Source: the supplement of paper PMC10307832
